A short description of data set [1]: Pharmacokinetics in male Sprague Dawley rats following oral co-dosing. The class given is in vivo. As to the method:
Separate solutions of rivaroxaban and Compound 101 were prepared using 20% ethanol, 60% PEG400, 20% dimethyl isosorbide to provide a concentration of 10 mg/mL. The concentration of each solution was confirmed by HPLC prior to further use. A combination dose of rivaroxaban and Compound 101 was prepared by mixing the two solutions in a 1.09:1 ratio to yield a final concentration of 5.45 mg/mL of rivaroxaban and 5 mg/mL for Compound 101.
Two male Sprague Dawley rats were dosed by oral gavage with the combination dose containing rivaroxaban (5.45 mg/kg) and compound 101 (5 mg/kg). Blood samples (approximately 0.25 mL) were collected retro-orbitally following oral administration at 0 minutes (min) (pre-dose), 5 min, 15 min, 30 min, 1 hr, 1.5 hr, 2 hr, 4 hr, 6 hr, 8 hr, 10 hr and 24 hr post-dose. Blood samples were stored on ice and centrifuged within 15 minutes of collection to harvest plasma. The plasma was decanted immediately and frozen at −20° C. until analysis.
Analyses of plasma samples were performed using a high performance liquid chromatography/mass spectrometry (HPLC/MS/MS) method. The LC system comprised an Agilent (Agilent Technologies Inc. USA) liquid chromatograph equipped with an isocratic pump (1100 series), an autosampler (1100 series) and a degasser (1100 series). Mass spectrometric analysis was performed using an API3000 (triple-quadrupole) instrument from AB Inc (Canada) with an ESI interface. The data acquisition and control system were created using Analyst 1.4 software from ABI Inc. Data for rivaroxaban was corrected by multiplying by a factor of 0.91 to compensate for the 9% increased amount administered as compared to Compound 101.

For data set [2] the following is noted: major in vivo metabolites of rivaroxaban; Weinz et al. 2004; cited from earlier work.
For data set [3] the following is noted: use of rivaroxaban; Kubitza et al. 2005; cited from earlier work.
Where [4] appears, read: male Sprague Dawley rats, oral gavage co-dose: rivaroxaban 5.45 mg/kg (data multiplied by 0.91) and Compound 101 5 mg/kg, plasma.

The term Cmax denotes the maximum level reached in the sampled fluid or tissue. As a reminder, the AUC(0-inf) is total exposure, with the tail of the curve extrapolated.

Where two headings read alike, the source gives them in different places.

Take `[2H]C1([2H])OC([2H])([2H])C([2H])([2H])N(c2ccc(N3C[C@H](CNC(=O)c4ccc(Cl)s4)OC3=O)cc2)C1=O` [Compound 101, (S)-5-chloro-N-((2-oxo-3-(4-(3-oxo-2,2,5,5,6,6-d6-morpholino)phenyl)oxazolidin-5-yl)methyl)thiophene-2-carboxamide]: in data set [1] (setting [4]), the “AUC∞” value amounted to 3424.33 ng·h/mL and the Cmax is 962 ng/mL. Moreover, in data set [1] (rats, oral co-dosing), the “increase in AUC as compared to rivaroxaban” value is reported as “greater than 16%” and the “increase in Cmax as compared to rivaroxaban” value was “greater than 14%”.

As for `O=C(O)CNC(=O)c1ccc(Cl)s1` [Compound M4], the activity of metabolite result in data set [2] is “Neither metabolite is active”.

`O=C(NC[C@H]1CN(c2ccc(N3CCOCC3=O)cc2)C(=O)O1)c1ccc(Cl)s1` [Rivaroxaban, 5-chloro-N-[2-oxo-3-[4-(3-oxomorpholin-4-yl)phenyl]oxazolidin-5(S)-ylmethyl]thiophene-2-carboxamide, reference compound]: in data set [1] (rat, male Sprague Dawley rats, oral gavage co-dose: rivaroxaban 5.45 mg/kg (data multiplied by 0.91) and Compound 101 5 mg/kg, plasma), the AUC(0-inf) is 2930 ng·h/mL. For the same molecule, the Cmax in data set [1] (rat, male Sprague Dawley rats, oral gavage co-dose: rivaroxaban 5.45 mg/kg (data multiplied by 0.91) and Compound 101 5 mg/kg, plasma, read-out: Cmax) came to 842 ng/mL. For the same molecule, the adverse events result in data set [3] is “ageusia (loss of taste), ecchymosis (bruising) and headache”.

(Values after patent US8227464B2, “Substituted oxazolidinone derivatives” (Concert Pharmaceuticals, Inc., priority 2007, dated 2012).)
